Article PMC6308302, “Identification of Pharmacokinetic Markers for Guanxin Danshen Drop Pills in Rats by Combination of Pharmacokinetics, Systems Pharmacology, and Pharmacodynamic Assays” (Frontiers in Pharmacology, 2018)
Marks after values point to notes of the source that are not given here. Blank lines part the entries; values can stand above or below the molecule they belong to.

Tests used:
[1] = Aqueous solubility test (vortexing in water); assay type: physicochemical; settings: for solubility at 5 min: thermodynamic from solid, determined, water, 25 °C, 1 atm
Procedure: Aqueous solubility (S) test of the 17 ingredients was performed by vortexing 10 mg of each ingredient in […] water in a test tube at ambient temperature and 1 atm. After vortexing for 5 min, if the solution is clear, the tested object will be considered as soluble in water. In silico assessment of the physicochemical properties governing permeation and intestinal absorption was carried out for the 17 ingredients studied. Theory aqueous solubility (S) was calculated with ALOGPS 2.1 online software via the Virtual Computational Chemistry Laboratory service (Chemoinformatics Group, Neuherberg, Germany) (VCCLAB^1). The octanol–water partition coefficient (cLogP), the total hydrogen bond count (donors and acceptors), and topological polar surface area (TPSA) were determined using the Molinspiration Property Calculator (Molinspiration Cheminformatics, Bratislava, Slovak Republic^2). Lipinski’s rule of 5 was used to predict the permeability of the compound ([Lipinski et al., 2001]).

[2] = tested on: Caco-2 cell monolayers; settings: ref Lu et al., 2008, Liu et al., 2009, Hu et al., 2014, Bowles et al., 2017, cited from earlier work; for Papp(apical→basolateral) / Papp(basolateral→apical): Caco-2 cell monolayers, from literature
[3] = Multiple component PK study in rat plasma after p.o. GDDP (HPLC-MS); settings: for detection in rat plasma: at 5, 10, 15, 30, 45, or 60 min, LOD 0.5–0.7 ng/mL
[4] = tested on: isoprenaline-induced MI in mice; experiment: In vivo anti-MI study: isoprenaline-induced myocardial injury (ECG, H&E histology)
[5] = Stability tests in rat plasma (QC samples, HPLC-MS); settings: n=5
From the text: Accuracy and precision were expressed by relative error (RE) and coefficient of variance (RSD), respectively.

[6] = Sprague-Dawley, rat, plasma, po, 0.4 g/kg
[7] = Sprague-Dawley, rat, plasma, po, 0.8 g/kg
[8] = rat plasma, GDDP 0.4 g/kg p.o. (Low dose group), n=3
[9] = rat plasma, GDDP 0.8 g/kg p.o. (High dose group), n=3
[10] = 40 mg/kg p.o. for 7 days, isoprenaline-induced MI
[11] = 24h in auto-sampler vials, spiked 2 ng/mL
[12] = 24h in auto-sampler vials, spiked 400 ng/mL
[13] = 24h in auto-sampler vials, spiked 1600 ng/mL
[14] = Placing plasma for 6h at 4°C, spiked 2 ng/mL
[15] = Placing plasma for 6h at 4°C, spiked 400 ng/mL
[16] = Placing plasma for 6h at 4°C, spiked 1600 ng/mL
[17] = three freeze-thaw cycles, rat plasma, spiked 2 ng/mL
[18] = three freeze-thaw cycles, rat plasma, spiked 400 ng/mL
[19] = three freeze-thaw cycles, rat plasma, spiked 1600 ng/mL

Structure (SMILES): O=C(O)C(O)Cc1ccc(O)c(O)c1 (centres unmarked) [DSS, danshensu]
detection in rat plasma at more than 15 min after administration ([3]; GDDP 0.4 and 0.8 g/kg B.W.): could not be detected | detection in rat plasma ([3]; GDDP 0.8 g/kg p.o.): could be detected | plasma level ([3]; rats, GDDP 0.4 and 0.8 g/kg, more than 15 min after administration, below LOD): < 0.5 ng/mL | solubility at 5 min [1]: > 10000 µg/mL

Structure (SMILES): O=C(/C=C/c1ccc(O)c2c1[C@H](C(=O)O)[C@@H](c1ccc(O)c(O)c1)O2)O[C@H](Cc1ccc(O)c(O)c1)C(=O)O [LA, lithospermic acid]
solubility at 5 min [1]: > 10000 µg/mL | Papp(apical→basolateral) [2]: 0.0816^a ×10^-6 cm/s | Papp(basolateral→apical) [2]: 0.0413^a ×10^-6 cm/s

Second part, led by results:

solubility at 5 min [1]: > 10000 µg/mL
Structure (SMILES): O=C(/C=C/c1ccc(O)c(O)c1/C=C/c1ccc(O)c(O)c1)OC(Cc1ccc(O)c(O)c1)C(=O)O (centres unmarked) [SAA, SA A]
Papp(apical→basolateral) [2]: 0.0595^a ×10^-6 cm/s | Papp(basolateral→apical) [2]: 0.0554^a ×10^-6 cm/s

determination in rat plasma at the planned successive PK time points ([3]; GDDP 0.8 g/kg p.o., 5, 10, 15, 30, 45, 60, and 120 min, LOQ 1.0–1.4 ng/mL): could be determined | detection in rat plasma ([3]; GDDP 0.8 g/kg p.o.): could be detected | AUC(0-inf) [3, 6]: 71.7 ± 47.4 ng·h/mL | AUC(0-t) [3, 6]: 23.5 ± 6.4 ng·h/mL | MRT last [3, 6]: 5.4 ± 0.41 h | Cmax ([3]; Sprague-Dawley, rat, plasma, po, 0.4 g/kg, Cmax, rat plasma, GDDP 0.4 g/kg p.o. (Low dose group), n=3): 4.04 ± 0.72 ng/mL | AUC(0-inf) [3, 7]: 90.7 ± 52.9 ng·h/mL | AUC(0-t) [3, 7]: 31.1 ± 1.74 ng·h/mL | MRT last [3, 7]: 5.23 ± 0.04 h | Tmax [3, 7]: 0.33 ± 0.14 h | Cmax ([3]; Sprague-Dawley, rat, plasma, po, 0.8 g/kg, Cmax (high / low plasma drug concentrations), rats, GDDP 0.4 and 0.8 g/kg p.o., classification): < 10 ng/mL | Cmax ([3]; Sprague-Dawley, rat, plasma, po, 0.8 g/kg, Cmax, rat plasma, GDDP 0.8 g/kg p.o. (High dose group), n=3): 9.21 ± 0.78 ng/mL | half-life ([3]; Sprague-Dawley, rat, plasma, po, 0.8 g/kg, t1/2 β (fast / slow elimination type), rats, GDDP 0.4 and 0.8 g/kg p.o., classification): > 2.6 h | half-life ([3]; Sprague-Dawley, rat, plasma, po, 0.8 g/kg, t1/2 β, rat plasma, GDDP 0.8 g/kg p.o. (High dose group), n=3): 18.3 ± 13 h | Cltot [3, 8]: 382.2 ± 252.5 mL/min/kg | MRT0-∞ [3, 8]: 27.09 ± 16.67 h | Tmax [3, 8]: 0.25 ± 0.00 h | t1/2 β [3, 8]: 18.14 ± 12.52 h | Cltot [3, 9]: 585.2 ± 304.2 mL/min/kg | MRT0-∞ [3, 9]: 26.52 ± 19.83 h | solubility in water (in words) ([1]; water at 25 °C): insoluble | Stability: Measured [5, 11]: 2.25 ± 0.34 ng/mL | Stability: RE [5, 11]: 12.73% | Stability: Measured [5, 12]: 464.77 ± 53.87 ng/mL | Stability: RE [5, 12]: 16.19% | Stability: Measured [5, 13]: 1714.76 ± 174.65 ng/mL | Stability: RE [5, 13]: 7.17% | Stability: Measured [5, 14]: 2.14 ± 0.11 ng/mL | Stability: RE [5, 14]: 6.84% | Stability: Measured [5, 15]: 462.76 ± 13.70 ng/mL | Stability: RE [5, 15]: 15.69% | Stability: Measured [5, 16]: 1933.47 ± 224.22 ng/mL | Stability: RE [5, 16]: 20.84% | Stability: Measured [5, 17]: 2.10 ± 0.23 ng/mL | Stability: RE [5, 17]: 4.94% | Stability: Measured [5, 18]: 468.67 ± 61.03 ng/mL | Stability: RE [5, 18]: 19.13% | Stability: Measured [5, 19]: 1830.46 ± 289.25 ng/mL | Stability: RE [5, 19]: 14.40%
Structure (SMILES): Cc1coc2c1C(=O)C(=O)c1c-2ccc2c1CCCC2(C)C [TS IIA, tanshinone (TS) IIA]
Papp(apical→basolateral) [2]: 0.98^d ×10^-6 cm/s | Papp(basolateral→apical) [2]: 11.81^d ×10^-6 cm/s | apparent permeability in Caco-2 cell monolayers ([2]; previous results): ≥ 10^-6 cm/s | ST segment elevations on the seventh day of the trial ([4]; 40 mg/kg p.o. for 7 days, compared with model group, P < 0.05): significantly decreased | Histopathology of heart tissue (H&E) [4, 10]: edema, inflammatory infiltration, and loss of striations in heart tissue | anti-MI effect (overall conclusion) [4, 10]: mild therapeutic effect | ECG (lead II) findings on the fifth day of the trial ([4]; 40 mg/kg p.o., isoprenaline 5 mg/kg on days 4 and 5): ST segment elevated

solubility at 5 min [1]: > 10000 µg/mL
Structure (SMILES): O=C(/C=C/c1ccc(O)c(O)c1)O[C@H](Cc1ccc(O)c(O)c1)C(=O)O [RA, rosmarinic acid]
Papp(apical→basolateral) [2]: 0.523^a ×10^-6 cm/s | Papp(basolateral→apical) [2]: 0.550^a ×10^-6 cm/s
